Activity calls are given as the source filed them. How the calls were made is not given here.
System: CCRIS mutagenicity, Ames/micronucleus/aberration tests
Experiment: CCRIS mutagenicity studies
[1] = Test System: AMES SALMONELLA TYPHIMURIUM, Strain/Indicator: TA98, Metabolic Activation: HAMSTER, LIVER, S-9, AROCLOR 1254 (10%), Method: PREINCUBATION
[2] = Test System: AMES SALMONELLA TYPHIMURIUM, Strain/Indicator: TA98, Metabolic Activation: NONE, Method: PREINCUBATION
[3] = Test System: AMES SALMONELLA TYPHIMURIUM, Strain/Indicator: TA98, Metabolic Activation: RAT, LIVER, S-9, AROCLOR 1254 (10%), Method: PREINCUBATION
[4] = Test System: AMES SALMONELLA TYPHIMURIUM, Strain/Indicator: TA100, Metabolic Activation: HAMSTER, LIVER, S-9, AROCLOR 1254 (10%), Method: PREINCUBATION
[5] = Test System: AMES SALMONELLA TYPHIMURIUM, Strain/Indicator: TA100, Metabolic Activation: NONE, Method: PREINCUBATION
[6] = Test System: AMES SALMONELLA TYPHIMURIUM, Strain/Indicator: TA100, Metabolic Activation: RAT, LIVER, S-9, AROCLOR 1254 (10%), Method: PREINCUBATION
[7] = Test System: AMES SALMONELLA TYPHIMURIUM, Strain/Indicator: TA1535, Metabolic Activation: HAMSTER, LIVER, S-9, AROCLOR 1254 (10%), Method: PREINCUBATION
[8] = Test System: AMES SALMONELLA TYPHIMURIUM, Strain/Indicator: TA1535, Metabolic Activation: NONE, Method: PREINCUBATION
[9] = Test System: AMES SALMONELLA TYPHIMURIUM, Strain/Indicator: TA1535, Metabolic Activation: RAT, LIVER, S-9, AROCLOR 1254 (10%), Method: PREINCUBATION
[10] = Test System: AMES SALMONELLA TYPHIMURIUM, Strain/Indicator: TA1537, Metabolic Activation: HAMSTER, LIVER, S-9, AROCLOR 1254 (10%), Method: PREINCUBATION
[11] = Test System: AMES SALMONELLA TYPHIMURIUM, Strain/Indicator: TA1537, Metabolic Activation: NONE, Method: PREINCUBATION
[12] = Test System: AMES SALMONELLA TYPHIMURIUM, Strain/Indicator: TA1537, Metabolic Activation: RAT, LIVER, S-9, AROCLOR 1254 (10%), Method: PREINCUBATION

SMILES: O=S1(=O)CC=CC1
- mutagenic call (End Point: IN VITRO CHROMOSOMAL ABERRATIONS, Test System: CHO-LB CELLS, Metabolic Activation: NONE): inactive; negative
- mutagenic call (End Point: IN VITRO CHROMOSOMAL ABERRATIONS, Test System: CHO-LB CELLS, Metabolic Activation: RAT, LIVER, S-9, AROCLOR 1254): inactive; negative
- mutagenic call [1]: inactive; negative
- mutagenic call [2]: inactive; negative
- mutagenic call [3]: inactive; negative
- mutagenic call [4]: inactive; negative
- mutagenic call [5]: inactive; negative
- mutagenic call [6]: inactive; negative
- mutagenic call [7]: inactive; negative
- mutagenic call [8]: inactive; negative
- mutagenic call [9]: inactive; negative
- mutagenic call [10]: inactive; negative
- mutagenic call [11]: inactive; negative
- mutagenic call [12]: inactive; negative

SMILES: CC1(C)C[C@H]2C=C(C=O)[C@@]3(C=O)C[C@@]3(C)[C@H]2C1
- mutagenic call (Test System: CHINESE HAMSTER V-79, Strain/Indicator: V-79/6-THIOGUANINE (HGPRT), Metabolic Activation: NONE): inactive; negative

SMILES: C/C=C1/C[C@@H](C)[C@@](C)(O)C(=O)OCC2=CCN3CC[C@@H](OC1=O)[C@@H]23
- mutagenic call (Test System: AMES SALMONELLA TYPHIMURIUM, Strain/Indicator: TA100, Metabolic Activation: HAMSTER, LIVER, S-9, PCB, Method: PREINCUBATION): inactive; negative
- mutagenic call (Test System: AMES SALMONELLA TYPHIMURIUM, Strain/Indicator: TA100, Metabolic Activation: RAT, LIVER, S-9, PCB, Method: PREINCUBATION): inactive; negative
- mutagenic call (Test System: AMES SALMONELLA TYPHIMURIUM, Strain/Indicator: TA100, Metabolic Activation: RAT, LIVER, S-9, SODIUM PHENOBARBITAL AND BETA-NAPHTHOFLAVONE, Method: PREINCUBATION): inactive; negative
- mutagenic call (Test System: UDS RAT HEPATOCYTES, Strain/Indicator: THY INCORP, Metabolic Activation: NONE, Method: AUTORADIOGRAPHY): active; positive

SMILES: Oc1ccc2cc3ccc4cccc5ccc(c2c1)c3c45
- mutagenic call (Test System: AMES SALMONELLA TYPHIMURIUM, Strain/Indicator: TA98, Metabolic Activation: RAT, LIVER, 3-METHYLCHOLANTHRENE, Method: LIQUID SUSPENSION): active; positive
- mutagenic call (Test System: AMES SALMONELLA TYPHIMURIUM, Strain/Indicator: TA1538, Metabolic Activation: RAT, LIVER, 3-METHYLCHOLANTHRENE, Method: LIQUID SUSPENSION): active; positive
- mutagenic call (Test System: CHINESE HAMSTER V-79, Strain/Indicator: V-79/OUABAIN, Metabolic Activation: NONE, Method: STANDARD PLATE): active; positive

SMILES: Cc1cc(S(=O)(=O)O)c2c(C)ccc(C(C)C)cc1-2
- mutagenic call (Test System: AMES SALMONELLA TYPHIMURIUM, Strain/Indicator: TA98, Metabolic Activation: NONE): inactive; negative
- mutagenic call (Test System: AMES SALMONELLA TYPHIMURIUM, Strain/Indicator: TA98, Metabolic Activation: S-9): inactive; negative
- mutagenic call (Test System: AMES SALMONELLA TYPHIMURIUM, Strain/Indicator: TA100, Metabolic Activation: NONE): inactive; negative
- mutagenic call (Test System: AMES SALMONELLA TYPHIMURIUM, Strain/Indicator: TA100, Metabolic Activation: S-9): inactive; negative
- mutagenic call (Test System: AMES SALMONELLA TYPHIMURIUM, Strain/Indicator: TA1535, Metabolic Activation: NONE): inactive; negative
- mutagenic call (Test System: AMES SALMONELLA TYPHIMURIUM, Strain/Indicator: TA1535, Metabolic Activation: S-9): inactive; negative
- mutagenic call (Test System: AMES SALMONELLA TYPHIMURIUM, Strain/Indicator: TA1537, Metabolic Activation: NONE): inactive; negative
- mutagenic call (Test System: AMES SALMONELLA TYPHIMURIUM, Strain/Indicator: TA1537, Metabolic Activation: S-9): inactive; negative
- mutagenic call (Test System: E. COLI, Strain/Indicator: WP2 UVRA, Metabolic Activation: NONE): inactive; negative
- mutagenic call (Test System: E. COLI, Strain/Indicator: WP2 UVRA, Metabolic Activation: S-9): inactive; negative

SMILES: CCOC(=O)OCC
- mutagenic call [1]: inactive; negative
- mutagenic call [2]: inactive; negative
- mutagenic call [3]: inactive; negative
- mutagenic call [4]: inactive; negative
- mutagenic call [5]: inactive; negative
- mutagenic call [6]: inactive; negative
- mutagenic call [7]: inactive; negative
- mutagenic call [8]: inactive; negative
- mutagenic call [9]: inactive; negative
- mutagenic call [10]: inactive; negative
- mutagenic call [11]: inactive; negative
- mutagenic call [12]: inactive; negative

SMILES: CC[n+]1c2ccccc2nc2ccccc21
- mutagenic call (Test System: AMES SALMONELLA TYPHIMURIUM, Strain/Indicator: TA98, Metabolic Activation: NONE, Method: STANDARD PLATE): inactive; negative
- mutagenic call (Test System: AMES SALMONELLA TYPHIMURIUM, Strain/Indicator: TA98, Metabolic Activation: RAT, LIVER, S-9, AROCLOR 1254, Method: STANDARD PLATE): active; positive
- mutagenic call (Test System: AMES SALMONELLA TYPHIMURIUM, Strain/Indicator: TA100, Metabolic Activation: NONE, Method: STANDARD PLATE): inactive; negative
- mutagenic call (Test System: AMES SALMONELLA TYPHIMURIUM, Strain/Indicator: TA100, Metabolic Activation: RAT, LIVER, S-9, AROCLOR 1254, Method: STANDARD PLATE): inactive; negative
- mutagenic call (Test System: AMES SALMONELLA TYPHIMURIUM, Strain/Indicator: TA102, Metabolic Activation: NONE, Method: STANDARD PLATE): inactive; negative
- mutagenic call (Test System: AMES SALMONELLA TYPHIMURIUM, Strain/Indicator: TA1537, Metabolic Activation: RAT, LIVER, S-9, AROCLOR 1254, Method: STANDARD PLATE): active; positive
- mutagenic call (Test System: AMES SALMONELLA TYPHIMURIUM, Strain/Indicator: TA1538, Metabolic Activation: NONE, Method: STANDARD PLATE): inactive; negative
- mutagenic call (Test System: AMES SALMONELLA TYPHIMURIUM, Strain/Indicator: TA1538, Metabolic Activation: RAT, LIVER, S-9, AROCLOR 1254, Method: STANDARD PLATE): inactive; negative
- mutagenic call (Test System: AMES SALMONELLA TYPHIMURIUM, Strain/Indicator: TA2638, Metabolic Activation: NONE, Method: STANDARD PLATE): inactive; negative
- mutagenic call (Test System: E. COLI, Strain/Indicator: WP2 (PKM101), Metabolic Activation: NONE, Method: STANDARD PLATE): inactive; negative
- mutagenic call (Test System: E. COLI, Strain/Indicator: WP2 UVRA (PKM101), Metabolic Activation: NONE, Method: STANDARD PLATE): active; positive
